From PubChem BioAssay AID434987 (Southern Research Specialized Biocontainment Screening …, 2010)
Activity calls are given as the source filed them. The rule behind the calls is not given here.

Tested on: M. tuberculosis H37Rv growth inhibition with meropenem
Assay: dose response, H37Rv, with and without meropenem (AID 434987);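 note: growth over 7 days at 37 °C before Alamar Blue read on day 9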
[1] = M. tuberculosis H37Rv growth inhibition, measured here: IC50 without meropenem
[2] = M. tuberculosis H37Rv growth inhibition, measured here: IC90 without meropenem
[3] = measured here: IC90 with meropenem

Compound	IC50	IC50 [1]	IC90 [2]	IC90 [3]
CN(c1ccc(OCC(=O)Nc2ccc3[nH]c(=O)[nH]c3c2)cc1)S(=O)(=O)c1ccc(Cl)cc1	> 100 µM (inactive)	> 100 µM	> 100 µM	> 100 µM
COCCOC(=O)c1c(C)oc2ccc(OCc3cc(C(=O)OC)oc3C)cc12	> 100 µM (inactive)	> 100 µM	> 100 µM	> 100 µM
Cc1nnnn1/C(=C\c1ccccc1)C(=O)OCC(=O)NC1CCCCC1	8.62 µM (inactive)	18.1 µM	27 µM	17.6 µM
COc1cccc(CNC(=O)C(Cc2ccccc2)n2cccc2)c1 (configuration not stated)	50.7 µM (inactive)	67.4 µM	> 100 µM	> 100 µM
O=C(Nc1ccccc1)c1c2c(nc3ccccc13)CCCC2	17.1 µM	> 100 µM	> 100 µM	> 25 µM
Clc1ccc(Cn2cc(/C=N/n3cnnc3)c3ccccc32)cc1	46.9 µM (inactive)	49 µM	> 50 µM	> 100 µM
O=C(O)CCN1C(=O)/C(=C/c2ccc(-c3nc4ccccc4s3)o2)SC1=S	38.3 µM (inactive)	60.1 µM	> 100 µM	78.4 µM
CCOc1cc(/C=N\Nc2ccc([N+](=O)[O-])cc2)ccc1OCC(=O)Nc1ccc(C)c(C)c1	5.99 µM	> 100 µM	> 100 µM	> 12.5 µM
COc1cc(/C=C/C(=O)OCC(=O)Nc2ccc(Cl)cn2)ccc1O	39.4 µM	> 100 µM	> 100 µM	> 100 µM
Cc1ccccc1OCC(=O)Nc1ccccc1N1CCOCC1	51.3 µM (inactive)	> 100 µM	> 100 µM	> 100 µM
Cn1c(O)c(/C=C2/C=CC=N2)c(=O)[nH]c1=O	18.3 µM	> 100 µM	> 100 µM	> 100 µM
COc1cccc(-c2ccc(-c3noc(-c4ccccc4F)n3)c(OC)n2)c1	9.65 µM	> 100 µM	> 100 µM	> 12.5 µM
Cc1ccc(Cn2c(C(CO)Nc3nc(-c4ccc(Cl)c([N+](=O)[O-])c4)cs3)nc3ccccc32)cc1 (configuration not stated)	> 100 µM (inactive)	> 100 µM	> 100 µM	> 100 µM
Cc1noc(NS(=O)(=O)c2ccc(N/C=C\C(=O)c3ccc4c(c3)OCO4)cc2)c1C	34.2 µM	91.5 µM	> 100 µM	86 µM
COc1ccccc1N(C)S(=O)(=O)c1ccc(C(=O)OCC(=O)N2CCCCCC2)cc1	> 50 µM (inactive)	> 100 µM	> 100 µM	> 50 µM
Cc1nc2sc3c(c2c2nnc(SCC(=O)NCc4ccco4)n12)CCCC3	82.6 µM (inactive)	80.4 µM	> 100 µM	> 100 µM
COCCOC(=O)c1c(C)oc2ccc(OC(=O)c3c(OC)cccc3OC)cc12	> 100 µM (inactive)	> 100 µM	> 100 µM	> 100 µM
COc1ccc(C(=O)Nc2nc3ccccc3s2)c(OC)c1	> 100 µM (inactive)	> 100 µM	> 100 µM	> 100 µM
CC1CN(C(=S)NC(=O)c2cccc([N+](=O)[O-])c2)CC(C)O1 (configuration not stated)	11.8 µM	42.3 µM	> 100 µM	> 100 µM
CSc1ccccc1C(=O)Nc1ccc2c(c1)OCCO2	35.4 µM (inactive)	80.5 µM	> 100 µM	> 100 µM

Compound	IC50	IC50 [1]	IC90 [2]	IC90 [3]
Cc1cc(C)c(C)c(S(=O)(=O)N2C(=S)NC(=O)C2CC(C)C)c1C (configuration not stated)	> 100 µM (inactive)	> 100 µM	> 100 µM	> 100 µM
CN(C)S(=O)(=O)c1ccc(NC(=O)c2cc3ccccc3o2)cc1	> 100 µM (inactive)	> 100 µM	> 100 µM	> 100 µM
BrC(=C\c1ccccc1)/C=N/N1CCN(c2ccccn2)CC1	> 100 µM (inactive)	> 100 µM	> 100 µM	> 100 µM
O=C(/C=C/c1ccccn1)c1cc(Br)ccc1O	21.8 µM (inactive)	37.4 µM	58.6 µM	45.1 µM
O=S(=O)(Nc1ccccc1)c1ccc2c(c1)CCO2	> 100 µM (inactive)	> 100 µM	> 100 µM	> 100 µM
CCN(CCNC(=O)Nc1ccc(Cl)cc1)c1ccccc1	> 100 µM (inactive)	> 100 µM	> 100 µM	> 100 µM
Nc1cc(=O)nc(SCc2ccccc2)n1Cc1ccco1	87.3 µM (inactive)	> 100 µM	> 100 µM	> 100 µM
c1ccc2c(c1)Cn1nc(Cc3nc4c(s3)CCCC4)nc1-2	47.5 µM (inactive)	79.1 µM	> 100 µM	53 µM
Cc1cc(N2CCN(c3ccccc3)CC2)nc2ccccc12	> 100 µM (inactive)	> 100 µM	> 100 µM	> 100 µM
COc1ccccc1NC(=O)COc1ccc(CO)cc1Cl	> 100 µM (inactive)	> 100 µM	> 100 µM	> 100 µM
O=C(Nc1nc(-c2ccc(F)c(F)c2)cs1)c1cnccn1	14.6 µM	> 100 µM	> 100 µM	> 100 µM
Cn1c(/C=C/c2ccc(Br)cc2)c([N+](=O)[O-])c(=O)n(C)c1=O	> 100 µM (inactive)	> 100 µM	> 100 µM	> 100 µM
COc1ccccc1N1CCN(/N=C/c2cccc(OC)c2OC)CC1	> 100 µM (inactive)	> 100 µM	> 100 µM	> 100 µM
O=C(Nc1ccc(Cl)cc1F)c1cccc2ccccc12	> 100 µM (inactive)	> 100 µM	> 100 µM	> 100 µM
COc1c(NC(C)=O)c2ccccc2c2ccccc12	> 100 µM (inactive)	> 100 µM	> 100 µM	> 100 µM
Cc1ccc(OC(=O)COc2ccccc2)c(-n2nc3ccccc3n2)c1	> 100 µM (inactive)	> 100 µM	> 100 µM	> 100 µM
CCN(CC)CCCNC(=O)c1c(O)c2ccccc2n(Cc2ccccc2)c1=O	12.6 µM (inactive)	23.2 µM	32.7 µM	13.8 µM
Cc1cccc(CSc2nnc(C)c(=O)n2N)c1	5.94 µM (inactive)	12.4 µM	20.9 µM	9.9 µM
O=C(COC(=O)c1ccc(Cl)cc1[N+](=O)[O-])NNC(=O)c1cccs1	24.8 µM (inactive)	39.4 µM	53.9 µM	51.1 µM
O=c1c(O)c(-c2ccc3c(c2)OCO3)oc2ccccc12	2.12 µM	> 100 µM	> 100 µM	> 100 µM

Compound	IC50	IC50 [1]	IC90 [2]	IC90 [3]
CN(C)c1ccc(/C=N/NC(N)=S)cc1[N+](=O)[O-]	19.9 µM	> 100 µM	> 100 µM	> 50 µM
CCOC(=O)c1cc(C(=O)OCC)cc(-n2cc(O)c(C(=O)OCC)n2)c1	> 100 µM (inactive)	> 100 µM	> 100 µM	> 100 µM
CCCCCNCc1cccc(Br)c1	48.5 µM (inactive)	> 100 µM	> 100 µM	> 100 µM
COC(=O)c1c(NC(=O)c2ccc(C)cc2)csc1C	48.9 µM (inactive)	84 µM	> 100 µM	> 100 µM
Cc1n[nH]c(C)c1CCCOc1ccccc1	24.1 µM (inactive)	39.5 µM	> 100 µM	> 100 µM
CC(C(=O)Nc1nc2ccccc2[nH]1)N1C(=O)C2CC=CCC2C1=O (configuration not stated)	> 100 µM (inactive)	> 100 µM	> 100 µM	> 100 µM
O=C(COn1nnc2ccc(Cl)cc21)NC12CC3CC(CC(C3)C1)C2	> 100 µM (inactive)	> 100 µM	> 100 µM	> 100 µM
Cc1cccc(NC(=O)Cn2cnc3c(oc4ccccc43)c2=O)c1C	> 100 µM (inactive)	> 100 µM	> 100 µM	> 100 µM
Cc1cccnc1NC(=O)c1c(O)c2cccc3c2n(c1=O)CCC3	94.4 µM (inactive)	> 100 µM	> 100 µM	> 100 µM
CC(C)C(=O)Nc1ccc(NC(=S)NC(=O)c2ccc([N+](=O)[O-])cc2)cc1	> 100 µM (inactive)	> 100 µM	> 100 µM	> 100 µM
COc1ccc(-c2csc(NC(C)c3nc4cc(Cl)c(Cl)cc4n3CCCO)n2)cc1 (configuration not stated)	97.3 µM (inactive)	> 100 µM	> 100 µM	> 100 µM
COc1cc2nc(N3CCN(C(=O)OCc4ccccc4)[C@H](C(=O)NC(C)(C)C)C3)nc(N)c2cc1OC	64.5 µM (inactive)	65 µM	92.7 µM	84 µM
CCOc1cccc(/C=N/Nc2nc(N3CCCC3)nc(N3CCCC3)n2)c1O	90.8 µM (inactive)	> 100 µM	> 100 µM	> 100 µM
O=C(N/N=C/c1ccc(OC(=O)c2ccc3c(c2)OCO3)cc1)c1cncc(Br)c1	5.48 µM	45.7 µM	> 100 µM	48.3 µM
COc1ccccc1C(=O)Nc1sc2c(c1C(=O)NCc1ccco1)CCCC2	> 100 µM (inactive)	> 100 µM	> 100 µM	> 100 µM
CC(C)C(=O)Nc1ccc2c3c(cccc13)CC2	19.4 µM	> 100 µM	> 100 µM	> 100 µM
CCOc1ccc(-c2cnc3n2CCC3)cc1	35 µM	> 100 µM	> 100 µM	> 100 µM
CCN(CC)c1ccc(NC(=O)c2cc(Cl)ccc2OC)cc1	24.2 µM	> 100 µM	> 100 µM	> 100 µM
